≈ marks a conversion by molar mass, not a printed value. Where “and” joins values, the source holds several entries; their conditions need not be identical. Identical values can stand only once. Entries after “also recorded” stand apart in the source; their conditions may differ. Like-named read-outs stand apart in the source and are kept apart here.
Columns and labels:
[1] = system: Saw-toothed grain weevil, Oryzaephilus surinamensis; details: in vivo; cited from earlier work
[2] = system: Bean weevil, Acanthoscelides obtectus; details: in vivo; cited from earlier work
[3] = system: Granary weevil, Sitophilus granarius; details: in vivo; cited from earlier work
[4] = system: Drugstore beetle, Stegobium paniceum; details: in vivo; cited from earlier work
[5] = system: Confused flour beetle, Tribolium confusum; details: in vivo; cited from earlier work
[6] = system: lesser grain borer (Rhizopertha dominica); details: in vivo
[7] = system: adult house fly (Musca domestica); details: in vivo
[8] = system: adult house fly (Musca domestica); test: whole plant or invertebrate; details: topical, 24 h, read-out: Percentage mortality at 24 h
[9] = system: brine shrimp (Artemia franciscana); test: whole plant or invertebrate
[10] = system: adult house fly (Musca domestica); details: in vivo; remark: listed apart in the source
[11] = system: root-knot nematode (RKN) (Meloidogyne incognita) eggs; details: in vivo
[12] = system: root-knot nematode (RKN) (Meloidogyne incognita) eggs; details: in vivo; remark: listed apart in the source
weed seeds in soil = details: in vivo
[13] = system: brine shrimp (Artemia franciscana); details: in vivo
[14] = system: yellow fever mosquito (Aedes aegypti) larvae; test: whole plant or invertebrate; details: 24 h, read-out: % mortality at 1 ppm
[15] = system: soybean cyst nematode (SCN) (Heterodera glycines) eggs; details: in vivo
[16] = system: five stored products pests (granary weevil, drugstore beetle, confused flour beetle, bean weevil, saw-toothed grain beetle); details: in vivo; cited from earlier work
[17] = system: house fly larvae (M. domestica); details: in vivo; cited from earlier work
[18] = in vivo; cited from earlier work
[19] = 24 h, read-out: % Mortality at 1 ppm

C=CC#N [acrylonitrile]
LC50 for 6 h [1]: 0.8 µg/mL
LC50 for 6 h [2]: 1.1 µg/mL
LC50 for 6 h [3]: 2.0 µg/mL
LC50 for 6 h [4]: 1.7 µg/mL
LC50 for 6 h [5]: 3.0 µg/mL

methyl ethyl ketone cyanohydrin [MEK-CNOH]
LC50 [6]: 0.27 µg/mL
LC50 [7]: 0.09 µg/mL

CC(C)=CCC/C(C)=C/C(O)C#N (centres unmarked) [citryl cyanohydrin]
mortality at 1 µg/fly [8]: 8%
mortality at 1 ppm [9]: 0%
mortality at 10 ppm [9]: 0%
mortality at 100 ppm [9]: 87%
Percentage mortality at 24 h [10]: 9%
effectiveness as topical pesticide [10]: not active

N#CC(O)/C=C/c1ccccc1 (centres unmarked) [cinnamyl cyanohydrin]
mortality at 6 µg/fly [8]: 9%
mortality at 50 µg/fly [8]: 100%
mortality at 1 ppm [9]: 25%
mortality at 10 ppm [9]: 15%
mortality at 100 ppm [9]: 100%
effectiveness as topical pesticide [10]: relatively weak

CC(C)C(C)(O)C#N (centres unmarked) [3-methylbutanone cyanohydrin]
LC50 [6]: >20 µg/mL
LC50 [7]: >20 µg/mL

CC=C(C)C(O)C#N (centres unmarked) [2-methyl-2-butenal cyanohydrin]
LC50 [6]: >20 µg/mL
LC50 [7]: >20 µg/mL

CC(C)=CCCC(C)CC(=O)O (centres unmarked) [citronellic acid, reference compound]
mortality at 1 µg/fly [8]: 0%
mortality at 10 µg/fly [8]: 91%
mortality at 100 µg/fly [8]: 100%
mortality at 1 ppm [9]: 40%
mortality at 10 ppm [9]: 65%
mortality at 100 ppm [9]: 100%

C1CO1 [ethylene oxide]
LC50 for 6 h [1]: 4.0 µg/mL
LC50 for 6 h [2]: 10.5 µg/mL
LC50 for 6 h [3]: 13.5 µg/mL
LC50 for 6 h [4]: 9.0 µg/mL
LC50 for 6 h [5]: 27.5 µg/mL

N#CC1(O)C=CCCC1 (centres unmarked) [2-cyclohexen-1-one cyanohydrin]
LC50 [6]: >20 µg/mL
LC50 [7]: >20 µg/mL

C=C(C)[C@H]1Cc2c(ccc3c2O[C@@H]2COc4cc(OC)c(OC)cc4[C@@H]2C3=O)O1 [rotenone, reference compound]
mortality at 1 ppm [9]: 100%

CC(C)=CCCC(C)CC(O)C#N (centres unmarked) [citronellyl cyanohydrin]
mortality at 6 µg/fly [8]: 14%
mortality at 50 µg/fly [8]: 10%
effectiveness as topical pesticide [10]: not active

C=CC1CNC(=S)O1 (centres unmarked) [Goitrin, goitrin]
mortality at 1 µg/fly [8]: 5%
mortality at 100 µg/fly [8]: 5%

CC(C)(O)C#N [DMK-CNOH, dimethyl ketone cyanohydrin]
LC50 [6]: 0.25 µg/mL (≈ 2.94 µM)
LC50 [7]: <0.07 µg/mL

C=CC(O)C#N (centres unmarked) [CHP, 3-cyano-3-hydroxy-1-propene]
LC50 [6]: 0.37 µg/mL (≈ 4.45 µM)
mortality at 9.8 µg/fly [8]: 5%
mortality at 98 µg/fly [8]: 100%
LC50 [7]: 0.15 µg/mL (≈ 1.81 µM)
effectiveness as topical pesticide [10]: relatively weak
percent hatch, highest in the 22-day period [11]: ≤ 19%
percent hatch, highest in the 22-day observation period [12]: ≤ 34.4%

C=CC(C#N)OC(=O)CC (centres unmarked) [CHP-Pro, CHP propionate]
LC50 [6]: 0.70 µg/mL (≈ 5.03 µM)
times less effective than dichlorvos [6]: about 2.5 times
mortality at 9.7 µg/fly [8]: 0%
mortality at 97 µg/fly [8]: 100%
LC50 [7]: 0.66 µg/mL (≈ 4.74 µM)
times less effective than dichlorvos [7]: about 60 times

COP(=O)(OC)OC=C(Cl)Cl [dichlorvos, reference compound]
LC50 [6]: 0.29 µg/mL (≈ 1.31 µM)
mortality at 1 µg/fly [8]: 95%

C=CC(C#N)OC(=O)C(C)(C)C (centres unmarked) [CHP-Piv, CHP pivalate]
LC50 [6]: 2.4 µg/mL (≈ 14.4 µM)
mortality at 9.9 µg/fly [8]: 0%
mortality at 99 µg/fly [8]: 80%
LC50 [7]: 1.37 µg/mL (≈ 8.19 µM)

CCCC(C)C(O)C#N (centres unmarked) [2-methylvaleraldehyde cyanohydrin]
LC50 [6]: >20 µg/mL
LC50 [7]: >20 µg/mL

N#CC(O)c1ccccc1 (centres unmarked) [mandelonitrile]
percent hatch, highest in the 22-day period [11]: ≤ 29.7%

S=C=S [carbon disulfide]
LC50 for 6 h [1]: 40.0 µg/mL
LC50 for 6 h [2]: 29.0 µg/mL
LC50 for 6 h [3]: 43.0 µg/mL
LC50 for 6 h [4]: 42.0 µg/mL
LC50 for 6 h [5]: 75.0 µg/mL

C=CC(C#N)OC(C)=O (centres unmarked) [CHP-Ace, CHP acetate]
effect on post-emergent weeds (observation) (weed seeds in soil): kill post-emergent weeds
LC50 [6]: 0.37 µg/mL
Severity (bacteria and fungal colonies formed) (soil bacteria): completely inhibited growth; also recorded: No bacteria or fungal colonies
mortality at 10 µg/fly [8]: 0%
mortality at […] [8]: 100%
LC50 [7]: 0.26 µg/mL
times less effective than dichlorvos [7]: about 20 times
percent hatch, highest in the 22-day period [11]: ≤ 42.6%
Percent hatch [12]: 0.0% and 5.4% and 5.6% and 0.8% and 1.5% and 4.9% and 5.2% and 5.3%
percent hatch, highest in the 22-day observation period [12]: ≤ 5.6%

C=CC(C#N)OC(=O)/C=C/c1ccccc1 (centres unmarked) [CHP cinnamate]
mortality at 1 µg/fly [8]: 0%
mortality at 10 µg/fly [8]: ~50%
mortality at 100 µg/fly [8]: 87%
mortality at 1 ppm [9]: 95%
mortality at 10 ppm [9]: 100%
mortality at 100 ppm [9]: 100%
effectiveness as aquatic pesticide [13]: moderately toxic

C=CC(O)CC#N (centres unmarked) [CHB, 1-cyano-2-hydroxy-3-butene]
times less effective than dichlorvos [6]: about 68 times
mortality at 10.7 µg/fly [8]: 0%
mortality at 107 µg/fly [8]: 55%
mortality at 1 ppm [14]: 17%
LC50 [7]: 6.2 µg/mL (≈ 63.8 µM)
mortality at 1 ppm [9, 19]: 13%
effectiveness as aquatic pesticide [13]: very weak
[…] HATCH [15]: −70% and −73%

C=CCC#N [AC, allyl cyanide]
LC50 [6]: 2.8 µg/mL (≈ 41.7 µM)
mortality at 97 µg/fly [8]: 15%
mortality at 1 ppm [14]: 3%
LC50 [7]: 3.66 µg/mL (≈ 54.6 µM)
mortality at 1 ppm [9, 19]: 7%
effectiveness as aquatic pesticide [13]: very weak

CCC(C)C(O)C#N (centres unmarked) [2-methylbutyraldehyde cyanohydrin]
LC50 [6]: >20 µg/mL
LC50 [7]: >20 µg/mL

CBr [methyl bromide]
LC50 for 6 h [1]: 4.4 µg/mL
LC50 for 6 h [2]: 4.2 µg/mL
LC50 for 6 h [3]: 4.8 µg/mL
LC50 for 6 h [4]: 4.4 µg/mL
LC50 for 6 h [5]: 9.2 µg/mL
LC50 values, range over five stored products pests [16]: 4.2 to 9.2 µg/mL
Severity of depression of microbial activity (soil microbial activity): Slightly Depressed; also recorded: severe depression; also recorded: Severely Depressed

C=CC(C#N)OC(=O)CCCCCCCCC (centres unmarked) [CHP decanoate]
mortality at 1 µg/fly [8]: 0%
mortality at 10 µg/fly [8]: ~50%
mortality at 100 µg/fly [8]: 100%
mortality at 1 ppm [9]: 15%
mortality at 10 ppm [9]: 95%
mortality at 100 ppm [9]: 100%

N#CC(O)c1ccccc1[N+](=O)[O-] (centres unmarked) [2-nitromandelonitrile cyanohydrin]
LC50 [6]: >20 µg/mL
LC50 [7]: >20 µg/mL

C=CCN=C=S [AITC, allyl isothiocyanate]
LC50 [6]: 1.57 µg/mL (≈ 15.8 µM)
mortality at 99 µg/fly [8]: 45%
mortality at 1 ppm [14]: 83%
LC50 [7]: 0.13 µg/mL (≈ 1.31 µM)
mortality at 1 ppm [9, 19]: 97%

O=C(O)C=Cc1ccccc1 [cinnamic acid, reference compound]
mortality at 1 µg/fly [8]: 0%
mortality at 10 µg/fly [8]: 0%
mortality at 100 µg/fly [8]: 0%
mortality at 1 ppm [9]: 30%
mortality at 10 ppm [9]: 45%
mortality at 100 ppm [9]: 100%
effectiveness as topical pesticide [10]: not an effective biopesticide

CC1(C)C(C=C(Cl)Cl)C1C(=O)OCc1cccc(Oc2ccccc2)c1 (centres unmarked) [permethrin]
mortality [17]: roughly 98%

CNC(=O)O/N=C/C(C)(C)SC [Aldicarb]
mammalian LD50 [18]: 1 mg/kg

C=CCSC#N [ATC, allyl thiocyanate]
mortality at 101 µg/fly [8]: 35%
mortality at 1 ppm [14]: 57%
mortality at 1 ppm [9, 19]: 47%
effectiveness as aquatic pesticide [13]: very weak

— US6545043B1 (priority 1997, dated 2003)
